Here are results for 22 compounds from patent US20050282818A1, “Ubiquitin ligase inhibitors” (Rigel Pharmaceuticals, Inc., priority 2004, published 2005).

The target of one assay is T1, TRAF6/Uev1A/Ubc13 (Homo sapiens, UniProt Q9Y4K3).
T1 sequence (Q9Y4K3 1-522): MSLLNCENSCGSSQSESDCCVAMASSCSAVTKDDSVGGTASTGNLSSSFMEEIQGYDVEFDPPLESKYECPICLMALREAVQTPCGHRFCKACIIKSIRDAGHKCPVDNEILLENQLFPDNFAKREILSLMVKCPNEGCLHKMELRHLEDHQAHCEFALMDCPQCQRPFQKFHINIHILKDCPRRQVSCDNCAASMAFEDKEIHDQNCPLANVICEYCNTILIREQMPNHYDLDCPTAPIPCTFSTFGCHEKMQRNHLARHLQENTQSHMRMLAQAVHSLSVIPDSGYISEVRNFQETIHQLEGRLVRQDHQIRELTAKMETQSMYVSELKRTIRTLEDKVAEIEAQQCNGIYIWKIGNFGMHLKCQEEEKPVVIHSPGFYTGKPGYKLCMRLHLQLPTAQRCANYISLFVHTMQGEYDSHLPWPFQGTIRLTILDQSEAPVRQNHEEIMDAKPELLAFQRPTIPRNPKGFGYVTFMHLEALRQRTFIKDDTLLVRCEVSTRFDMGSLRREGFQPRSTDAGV
The assay can be described thus: TRAF6/Uev1A/Ubc13 plate-based ubiquitin ligase assay. It is filed as biochemical. The method in brief:
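Ligase activity was read as luminescence from anti-Flag/HRP detection of Flag-ubiquitin bound to casein-blocked Ni-plates alongside His-ubiquitin after a 1 h room-temperature reaction. Buffer: 62.5 mM Tris pH 7.5, 6.25 mM MgCl2, 1.0 mM DTT, 2 μM ATP; E1, Uev1a/Ubc13 and TRAF6 added last to start. IC50s derived across compound concentrations.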

Assay [1] concerns ICAM-1 expression in A549 cells. Description: ICAM assay (IL-1 induced ICAM-1/CD54 expression in A549 cells). It is filed as cell-based, human. The following applies: Homo sapiens, A549, ICAM assay. The method in brief:
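Luminescent immunostaining (anti-CD54, then anti-mouse IgG, 1 h) quantifies ICAM-1 on A549 cells induced 4 h at 37° C by IL-1 (4 μl of 25 ng/ml added). Compound is added 1 h before the cytokine to cells plated overnight at 10,000 per well.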

A further assay concerns the target APC11/APC2 (Homo sapiens, UniProt Q9NYG5+Q9UJX6). The assay can be described thus: APC-11/APC-2 ligase assay (APC auto ubiquitination). It is filed as biochemical. The following applies: APC assay. How it is done: For the assays described below, the TRAF6/Uev1A/UBC13 assay is the biochemical plate-based assay of TRAF6 ligase activity using Ubc13 as the E2 enzyme. The gel-based assay is the biochemical solution-based TRAF6 ligase assay (by SDS-PAGE and Western blot) to confirm the plate-based ELISA assay. The APC assay is an assay which is another E3 ligase (APC2/APC11) biochemical assay.
E3 (His APC11/APC2— “APC”) auto ubiquitination was measured as described in U.S. patent application Ser. No. 09/826,312 (Publication No. U.S. 2002 0042083 A1), which is incorporated by reference in its entirety. Details of the protocol are described below. Activity in the presence of the compound was determined relative to a parallel control in which only DMSO was added. Values of the IC50 were typically determined using 6 or 8 different concentrations of the compound, although as few as 2 concentrations may be used to approximate the IC50 value.
Nickel coated 96 well plates (Pierce 15242) were blocked for 1 hour with 100 μl of blocking buffer at room temperature. The plates were washed 4 times with 225 μl of 1 […]PBS and 80 μl of the reaction buffer were added that contained 100 ng/well of Flag ubiquitin. To this, 10 μl of the test compound diluted in DMSO were added. After the test compound was added, 10 μl of E1 (human), E2 (Ubch5c), and APC in Protein Buffer was added to obtain a final concentration of 5 ng/well of E1, 20 ng/well of E2 and 100 ng/well of APC. The plates were shaken for 10 minutes and incubated at room temperature for 1 hour. After incubation, the plates were washed 4 times with 225 μl of 1×PBS and 100 μl/well of Antibody Mix were added to each well. The plates were incubated at room temperature for another hour after which they were washed 4 times with 225 μl of 1×PBS and 100 μl/well of Lumino substrate were added to each well. The luminescence was measured by using a BMG luminescence microplate reader. The Blocking Buffer (1% Casein in 1×PBS) was stored at 4° C. until use.
The reaction buffer consisted of 62.5 mM Tris pH 7.6 (Trizma Base—Sigma T 8524), 3 mM MgCl2 (Magnesium Chloride—Sigma M 2393), 1 mM DTT (Sigma D 9779), 2.5 mM ATP (Roche Boehringer Mann Corp. 635 316), 100 ng/well of Flag ubiquitin, 0.1% BSA (Sigma A 7906), and 0.05% Tween 20 (Sigma P 7949).
The Protein Buffer consisted of 20 mM Tris pH 7.6, 10% glycerol (Sigma G 5516) and 1 mM DTT.
The antibody mix consisted of 0.25% BSA (Sigma A 7906) in 1×PBS, 1/50,000 anti Flag (Sigma F 3165), 1/100,000 of anti Mouse IgG HRP (Jackson Imrunoresearch #115 035 146).
The substrate mix consisted of SuperSignal Substrate from Pierce (catalog number 37070ZZ) and was prepared by mixing 100 ml of the peroxide solution, 100 ml of the enhancer solution and 100 ml of Milli Q® water.

pIC50: −log10 of the molar value.

APC11/APC2, sequence (Q9NYG5 whole entry): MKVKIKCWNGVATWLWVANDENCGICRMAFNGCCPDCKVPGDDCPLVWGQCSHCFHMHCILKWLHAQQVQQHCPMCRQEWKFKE
APC11/APC2, sequence (Q9UJX6 whole entry): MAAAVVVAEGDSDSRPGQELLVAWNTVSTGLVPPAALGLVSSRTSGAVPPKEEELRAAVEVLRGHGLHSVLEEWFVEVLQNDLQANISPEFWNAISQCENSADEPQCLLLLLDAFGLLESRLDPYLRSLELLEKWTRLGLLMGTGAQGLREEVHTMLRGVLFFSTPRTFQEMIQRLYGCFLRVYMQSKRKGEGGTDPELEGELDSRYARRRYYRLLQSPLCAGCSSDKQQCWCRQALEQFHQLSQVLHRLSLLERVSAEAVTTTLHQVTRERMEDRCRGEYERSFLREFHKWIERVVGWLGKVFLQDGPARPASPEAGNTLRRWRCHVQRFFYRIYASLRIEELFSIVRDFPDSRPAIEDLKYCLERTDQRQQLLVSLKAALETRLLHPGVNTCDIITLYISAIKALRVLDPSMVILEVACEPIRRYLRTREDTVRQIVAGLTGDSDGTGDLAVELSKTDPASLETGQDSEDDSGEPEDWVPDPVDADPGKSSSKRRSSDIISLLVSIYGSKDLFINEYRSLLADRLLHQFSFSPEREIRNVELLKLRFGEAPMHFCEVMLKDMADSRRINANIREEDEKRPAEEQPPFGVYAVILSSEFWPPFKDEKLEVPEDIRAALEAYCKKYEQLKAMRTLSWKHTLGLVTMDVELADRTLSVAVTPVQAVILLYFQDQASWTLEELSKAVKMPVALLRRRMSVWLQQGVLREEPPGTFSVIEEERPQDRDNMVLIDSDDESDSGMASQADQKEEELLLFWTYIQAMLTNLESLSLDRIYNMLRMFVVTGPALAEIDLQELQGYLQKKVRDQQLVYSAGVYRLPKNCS

By pIC50 is commonly meant −log10 of the IC50, conventionally taken in molar units. Read a low pIC50 as a high IC50. For the compound `O=[N+]([O-])c1ccc(-c2ccc(C(F)(F)F)cc2)c2nonc12` [compound 311, 4-Nitro-7-[4-(trifluoromethyl)phenyl]-2,1,3-benzoxadiazole], the pIC50 (against TRAF6/Uev1A/Ubc13; in assay [1]; on APC11/APC2) was 4.70 to 6.00 each time.
For the compound `COc1cccc(NS(=O)(=O)c2c(Cl)ccc3nonc23)c1OC` [compound 409, 5-chloro-N-(2,3-dimethoxyphenyl)-2,1,3-benzoxadiazole-4-sulfonamide], the results for the negative logarithm of the IC50 (pIC50) (against TRAF6/Uev1A/Ubc13; in assay [1]; against APC11/APC2) were no more than 4.70, 4.70 to 6.00 and no more than 4.70, respectively.
On to `Cc1ccc(-c2cc3nsnc3cc2F)cc1C` [compound 459, 5-(3,4-dimethylphenyl)-6-fluoro-2,1,3-benzthiadiazole], for which the pIC50 (on TRAF6/Uev1A/Ubc13; in assay [1]; against APC11/APC2) was no more than 4.70 each time.
As to `O=S(=O)(Nc1cc(Cl)ccc1Cl)c1ccc(Cl)c2nonc12` [compound 365, 7-chloro-N-(2,5-dichlorophenyl)-2,1,3-benzoxadiazole-4-sulfonamide], the pIC50 (against TRAF6/Uev1A/Ubc13; in assay [1]; at APC11/APC2) was no more than 4.70 each time.
Take `COc1cccc(NS(=O)(=O)c2ccc(Sc3cccc4ccccc34)c3nonc23)c1OC` [compound 413, N-(2,3-dimethoxyphenyl)-7-(naphthalen-1-ylthio)-2,1,3-benzoxadiazole-4-sulfonamide]: the pIC50 (against TRAF6/Uev1A/Ubc13; in assay [1]; against APC11/APC2) was 4.70 to 6.00 each time.
As for `COC(=O)c1ccc(Cl)cc1Nc1ccc(S(=O)(=O)Nc2cc(Cl)ccc2C(=O)OC)c2nonc12` [compound 361, methyl 4-chloro-2-(7-[N-{5-chloro-2-(methoxycarbonyl)phenyl}sulfamoyl]-2,1,3-benzoxadiazol-4-ylamino)benzoate], the pIC50 against TRAF6/Uev1A/Ubc13 was 4.70 to 6.00; in assay [1], no more than 4.70; on APC11/APC2, no more than 4.70.
On to `O=[N+]([O-])c1ccc(NS(=O)(=O)c2ccc(Cl)c3nonc23)c2ccccc12` [compound 388, 7-chloro-N-(4-nitronaphthalen-1-yl)-2,1,3-benzoxadiazole-4-sulfonamide], for which the pIC50 (against TRAF6/Uev1A/Ubc13; in assay [1]; against APC11/APC2) was no more than 4.70 in each case.
As to `O=C(O)c1ccc(NS(=O)(=O)c2ccc(Cl)c3nonc23)cc1` [compound 399, 4-(7-chloro-2,1,3-benzoxadiazole-4-sulfonamido)benzoic acid], the pIC50 (at TRAF6/Uev1A/Ubc13; in assay [1]; at APC11/APC2) was no more than 4.70 each time.
In the case of `O=S(=O)(NCC1CC1)c1ccc(Cl)c2nonc12` [compound 449, 7-chloro-N-(cyclopropylmethyl)-2,1,3-benzoxadiazole-4-sulfonamide], the pIC50 (on TRAF6/Uev1A/Ubc13; in assay [1]; at APC11/APC2) was no more than 4.70 each time.
Consider `Cc1cccc(-c2cc(C(F)(F)F)cc3nonc23)c1C` [compound 473, 4-(2,3-dimethylphenyl)-6-(trifluoromethyl)-2,1,3-benzoxadiazole], for which the pIC50 (at TRAF6/Uev1A/Ubc13; in assay [1]; against APC11/APC2) was no more than 4.70 throughout.
For `O=S(=O)(NCCCc1ccccc1)c1ccc(Cl)c2nonc12` [compound 445, 7-chloro-N-(3-phenylpropyl)-2,1,3-benzoxadiazole-4-sulfonamide], the pIC50 (against TRAF6/Uev1A/Ubc13; in assay [1]; at APC11/APC2) was no more than 4.70 throughout.
With `O=S(=O)(NC1CCCCC1)c1ccc(Cl)c2nonc12` [compound 448, 7-chloro-N-(cyclohexyl)-2,1,3-benzoxadiazole-4-sulfonamide], the results for the pIC50 (against TRAF6/Uev1A/Ubc13; in assay [1]; against APC11/APC2) were no more than 4.70, 4.70 to 6.00 and no more than 4.70, respectively.
Regarding `O=[N+]([O-])c1ccc(-c2ccccc2)c2nonc12` [compound 440, 4-nitro-7-phenyl-2,1,3-benzoxadiazole], the negative-log IC50 (pIC50) at TRAF6/Uev1A/Ubc13 is no more than 4.70; in assay [1] it was no more than 4.70; against APC11/APC2, 4.70 to 6.00.
Turning to `O=[N+]([O-])c1ccc(Nc2cccc(F)c2F)c2nonc12` [compound 397, N-(2,3-difluorophenyl)-7-nitro-2,1,3-benzoxadiazol-4-amine], the pIC50 (at TRAF6/Uev1A/Ubc13; in assay [1]; at APC11/APC2) was no more than 4.70 throughout.
Regarding `O=[N+]([O-])c1ccc(Nc2ccccc2F)c2nonc12` [compound 401, N-(2-fluorophenyl)-7-nitro-2,1,3-benzoxadiazol-4-amine], the pIC50 (against TRAF6/Uev1A/Ubc13; in assay [1]; at APC11/APC2) was no more than 4.70 in each case.
Consider `Cc1cccc(-c2cc(N3CCCCC3)c([N+](=O)[O-])c3nonc23)c1` [compound 432, 7-(3-methylphenyl)-4-nitro-5-(piperidin-1-yl)-2,1,3-benzoxadiazole], for which the pIC50 (against TRAF6/Uev1A/Ubc13; in assay [1]; against APC11/APC2) was no more than 4.70 each time.
Consider `O=[N+]([O-])c1ccc(-c2ccc(C(F)(F)F)cc2C(F)(F)F)c2nonc12` [compound 312, 4-[2,4-Bis(trifluoromethyl)phenyl]-7-nitro-2,1,3-benzoxadiazole], for which the values for the pIC50 (on TRAF6/Uev1A/Ubc13; in assay [1]; against APC11/APC2) were 4.70 to 6.00, no more than 4.70 and 4.70 to 6.00, respectively.
Regarding `O=S(=O)(Nc1cccc(F)c1F)c1ccc(Sc2ccncn2)c2nonc12` [compound 377, N-(2,3-difluorophenyl)-7-(pyrimidin-4-ylthio)-2,1,3-benzoxadiazole-4-sulfonamide], the negative logarithm of the IC50 (pIC50) (against TRAF6/Uev1A/Ubc13; in assay [1]; against APC11/APC2) was no more than 4.70 each time.
Turning to `COc1ccc(-c2cc3nsnc3cc2F)cc1OC` [compound 463, 5-(3,4-dimethoxyphenyl)-6-fluoro-2,1,3-benzthiadiazole], the pIC50 (against TRAF6/Uev1A/Ubc13; in assay [1]; on APC11/APC2) was no more than 4.70 each time.
Take `O=S(=O)(Nc1cccc2ccc(O)cc12)c1ccc(N2CCOCC2)c2nonc12` [compound 385, N-(7-hydroxynaphthalen-1-yl)-7-(morpholin-4-yl)-2,1,3-benzoxadiazole-4-sulfonamide]: the pIC50 (against TRAF6/Uev1A/Ubc13; in assay [1]; against APC11/APC2) was no more than 4.70 each time.
Consider `CC(=O)Nc1ccc(-c2cc(C)cc(C)c2)c2nonc12` [compound 436, N-(7-[3,5-dimethylphenyl]-2,1,3-benzoxadiazol-4-yl)acetamide], for which the pIC50 (on TRAF6/Uev1A/Ubc13; in assay [1]; on APC11/APC2) was no more than 4.70 throughout.
On to `O=[N+]([O-])c1ccc(-c2ccc(F)cc2)c2nonc12` [compound 442, 4-nitro-7-(4-fluorophenyl)-2,1,3-benzoxadiazole], for which the pIC50 against TRAF6/Uev1A/Ubc13 was 4.70 to 6.00; in assay [1], 4.70 to 6.00; on APC11/APC2, no more than 4.70.
